# Measured values: article PMC11247627, “Evaluation of Antibacterial Functionalized Dihydropyrimidine Photoaffinity Probes Toward Mechanism of Action Studies” (ACS Medicinal Chemistry Letters, 2024)
# Several values for one entry are separate records, joined by “and”; a condition that tells them apart may be missing. Equal entries are not always repeated. Entries after “also recorded” stand apart in the source; their conditions may differ. Where two headings read alike, the source gives them in different places.
# Legend:
# [1] = test system: red blood cells (defibrinated sheep blood); test: Hemolysis assay (red blood cell lysis); type: cell-based; conditions: concentration producing >20% hemolysis of red blood cells, 1 h, 37 C
# Description: (§1) 1260 1.5 mL of mechanically defibrinated sheep blood (Hemostat Labs: DSB100) was placed in a microcentrifuge tube and was centrifuged at 10,000 rpm for ten minutes. Following the removal of the supernatant, the cells were resuspended in 1 mL of phosphate-buffered saline (PBS). This process was repeated two more times. The final suspension was diluted ten-fold with PBS and was aliquoted into microcentrifuge tubes containing the compounds which were previously serial diluted in PBS. TritonX 1265 (1% by volume) served as a positive control, while sterile PBS served as a negative control. All samples were incubated at 37 °C and shaken at 200 rpm for 1 hour. After the 1 hour, the samples were centrifuged at 10,000 rpm for 5 minutes and the absorbance of the supernatant was measured via UV spectroscopy at a 540 nm wavelength.
# [2] = test system: Staphylococcus aureus ATCC 43300 (MRSA); test: Antibacterial broth microdilution assay (MIC), MRSA ATCC 43300; type: cell-based; conditions: 18 h; for MIC: Staphylococcus aureus, read-out: MIC ATCC 43300
# Description: (§2) These 24 DHP analogues were then screened for inhibition of Staphylococcus aureus growth using microdilution assays. Growth inhibition was examined in methicillin-sensitive S. aureus (ATCC 12600) and two strains of MRSA (ATCC 33591 and ATCC 43300). Antibiotic controls were included in the screen, including carbenicillin, erythromycin, gentamycin, trimethoprim, and vancomycin, and minimum inhibitory concentrations (MICs) were determined for each compound, which were defined as the concentration required to inhibit >95% of bacterial growth (Table 1).
# (§3) Antibacterial Microdilution Assay (MIC Determination)
# (§4) 1240 The MIC determination assays were performed in a BSL-2 laboratory with appropriate security and biosafety measures. The MICs were determined using a broth microdilution assay closely following the guidelines of the Clinical and Laboratories Standards Institute (CLSI). MICs were determined in duplicate for two biological replicates using 2-fold serial dilutions of test compounds or commercial antibiotics in cation-adjusted Mueller-Hinton broth. The central 60 wells of 96-well plates were 1245 prepared with the compound of interest at the indicated concentration, where 2 µL of the compound in DMSO were added prior to the addition of the culture. Overnight cultures of the different Staphylococcus aureus strains were diluted to provide an initial inoculum of approximately 5 X 10 5 CFU/mL that was delivered to each well in 198 µL of culture (final DMSO concentration of ~1%). Initial inoculum concentrations were verified by plating to count CFU/mL. Each plate was equipped with 1250 experimental controls for full growth (6 wells) and full growth inhibition (6 wells), and all control wells were in the presence of 1% DMSO. The outer 36 wells were filled with 200 µL of culture each to prevent growth effects on the interior 60 wells. The plates were incubated at 37 °C for 18 hours, at which time they were removed from the incubator and were allowed to equilibrate to room temperature for 30 minutes. Absorbance of each well at 600 nm was then read using a microplate reader to 1255 determine the MIC, and visual confirmation of growth inhibition was also performed. If variation was seen in the experimental values, the highest value of two independent trials was listed.
# [3] = test system: Staphylococcus aureus ATCC 12600; test: Antibacterial broth microdilution assay (MIC), methicillin-sensitive S. aureus ATCC 12600; type: cell-based; conditions: Staphylococcus aureus, read-out: MIC ATCC 12600
# Description: as §2, §3, §4
# [4] = MTT cytotoxicity assay, HEK293 viability; type: cell-based; conditions: human, HEK293 cells, 24 h treatment
# Description: After determining that some of our compounds were quite potent for the inhibition of bacterial growth, we next turned toward assessing broader cytotoxicity trends. […] Further, our previously reported derivatives were also screened for red blood cell (RBC) hemolysis, and the assay indicated a lack of RBC lysis at the highest concentrations tested for all compounds (64 μg/mL).[6] […] This indicates it may have secondary mechanisms of cytotoxicity via nonspecific membrane rupturing activity, albeit, at a much higher concentration than its 2 μg/mL MIC. Next, we examined the compounds’ ability to decrease the viability of an immortalized mammalian cell line (HEK293) using a colorimetric MTT assay.[34] To our surprise, all of the compounds screened produced relatively potent cytotoxicity against this cell line. […] We screened a dihydropyrimidine where the guanidine was substituted with a urea (traditional Biginelli reaction derived), and this compound had no bacterial inhibition but continued to have significant mammalian cytotoxicity, further decoupling the antibacterial activity from mammalian cytotoxicity in these cases. Future studies involving the photoaffinity probes will examine the mechanism by which our compounds exert their growth-inhibiting effects in both bacterial and mammalian cells.
# Mammalian cytotoxicity was evaluated using a commercially available MTT Cell proliferation assay 1275 (ATCC 30-1010K; Manassas, VA) following the included protocol. Briefly, Human Embryonic Kidney 293 (HEK-293; ATCC CRL-1353) cells were seeded onto 96 well plates (Nunclon Delta; ThermoFisher 167008; Waltham, MA) coated with Poly-D-Lysine (Thermofisher A3890401) at a density of […] cells per well in 80 µL of Eagle's Minimum Essential Medium (EMEM; ATCC 30-2003) with 10% Fetal Bovine Serum (ATCC 30-2021). Cells were incubated at 37 °C in a 5% CO2 atmosphere and allowed to 1280 adhere overnight, and then treated for 24 h with 20 µL of drugs dissolved in PBS with 0.5% DMSO, at concentrations ranging from 1×10^-4 M to 1×10^-9 M. Following treatment, 10 µL of MTT reagent was added to each well and allowed to incubate at 37 °C for 4 h. Then, 100 μL of detergent reagent was added to all wells, and they were stored at room temperature in the dark for 2 h. Absorbance was then read using a multi-mode spectrophotometer (Spectramax i3X; San Jose, CA) at a wavelength of 570 1285 nm. Raw values were normalized to a 0-100% scale using the maximum and minimum responses. To generate dose-response curves and IC50 values, normalized data were plotted against the log of the drug concentrations and fit to nonlinear curve [log(inhibitor) vs. response – variable slope (four parameters)] using GraphPad Prism version 7.05 (GraphPad Software; San Diego, CA).
# [5] = test system: Staphylococcus aureus ATCC 33591 (MRSA); test: Antibacterial broth microdilution assay (MIC), MRSA ATCC 33591; type: cell-based; conditions: Staphylococcus aureus, 18 h, read-out: MIC ATCC 33591
# Description: as §2, §3, §4
# [6] = test system: Staphylococcus aureus; test: S. aureus growth inhibition (all three strains or strain not specified); type: cell-based; conditions: for MIC: Staphylococcus aureus, read-out: concentration inhibiting S. aureus growth (MIC); for antibacterial activity (in words): S. aureus growth; for antibacterial potency of alkynyl esters compared to their ethyl variants: MIC comparison, Table 3
# Description: as §2, §3, §4
# [7] = Hemolysis assay (red blood cell lysis); type: cell-based, sheep; conditions: sheep, washed red blood cells from defibrinated sheep blood; 64 μg/mL; read-out: hemolysis (RBC lysis) at 64 μg/mL
# Description: as §1
# [8] = target: T1, recombinant Staphylococcus aureus DHFR (SaDHFR) (Staphylococcus aureus, UniProt P0A017); test: Inhibition of recombinant S. aureus DHFR; type: biochemical; conditions: in vitro
# T1 construct: made in house
# T1 sequence (P0A017 whole entry): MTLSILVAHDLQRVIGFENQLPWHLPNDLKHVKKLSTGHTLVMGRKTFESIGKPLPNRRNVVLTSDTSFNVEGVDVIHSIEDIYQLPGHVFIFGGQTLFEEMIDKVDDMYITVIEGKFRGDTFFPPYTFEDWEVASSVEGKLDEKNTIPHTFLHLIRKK
# Description: To explore this, oxidization of DHP 7a to the pyrimidine 8a was performed using phenyliodine diacetate (PIDA) (Figure 3a),[12]−[14] as this oxidation state mimics FDA approved antimicrobial DHFR inhibitors trimethoprim 1 (Figure 1a) and pyrimethamine 9 (Figure 3b).
# [9] = amount inhibiting >95% of growth (A600), suffix 'I' = partial growth inhibition at the value, >95% at higher concentrations
# [10] = ATCC12600, amount inhibiting >95% of growth (A600), 18 h, suffix 'I' = partial growth inhibition at the value, >95% at higher concentrations
# [11] = all three S. aureus strains or strain not specified
SMILES,lysis20 [1] [µg/mL],"MIC [2, 9] [mg/L]","MIC [3, 10] [mg/L]",IC50 at 24 h [4],"MIC [5, 9] [mg/L]","MIC [6, 11] [mg/L]",further results
CCOC(=O)C1=C(c2cccc(C)c2)NC(N)=NC1c1cc(Cl)cc(Cl)c1 (stereo not shown) [7i],>64,8,8,16 µM and 5.1 µg/mL,8,–,–
CCOC(=O)C1=C(c2ccccc2)NC(N)=NC1c1ccc(-c2ccccc2)cc1 (stereo not shown) [7b],>64,4,4,9.4 µM and 3 µg/mL,4,4,–
CCOC(=O)C1=C(c2cccc(C(F)(F)F)c2)NC(N)=NC1c1ccc(CC(C)C)cc1 (stereo not shown) [7f],64,2,2,1.9 µM and 0.61 µg/mL,2,2,"hemolysis at 1 h, 64 μg/mL [7]: > 20%"
CCOC(=O)C1=C(c2ccccc2)NC(N)=NC1c1cc(Cl)cc(Cl)c1 (stereo not shown) [6j],>64,8,8,11 µM and 3.5 µg/mL,–,–,–
CCOC(=O)C1=C(c2cccc(F)c2)NC(N)=NC1c1cc(Cl)cc(Cl)c1 (stereo not shown) [7g],>64,8,8,14 µM and 4.5 µg/mL,8,–,–
CCOC(=O)C1=C(c2ccccc2)NC(N)=NC1c1ccccc1OC (stereo not shown) [6s],>64,> 64,> 64,87 µM and 28 µg/mL,> 64,–,"MIC ATCC 43300 [2, 9]: >64 mg/L"
CCOC(=O)C1=C(CC)NC(N)=NC1c1ccc(CC(C)C)cc1 (stereo not shown) [7c],>64,4,–,11 µM and 3.5 µg/mL,8,–,–
CCOC(=O)C1=C(c2ccccc2)NC(N)=NC1c1cccc(Cl)c1 (stereo not shown) [6i],>64,32,32,18 µM and 5.8 µg/mL,32,–,–
CCOC(=O)C1=C(c2cccc(C(F)(F)F)c2)NC(N)=NC1c1cc(Cl)cc(Cl)c1 (stereo not shown) [7e],>64,4,4,9.9 µM and 3.2 µg/mL,4,–,–
CCOC(=O)c1c(C)nc(N)nc1-c1cc(Cl)cc(Cl)c1 [compound 10],–,–,–,–,–,–,antibacterial activity (in words) [6]: lost all antibacterial activity; also recorded: lacked antibacterial activity; DHFR inhibition (in words) [8]: lacked antibacterial activity and DHFR inhibition
C#CCCOC(=O)C1=C(c2ccccc2)NC(N)=NC1c1ccc(C2(C(F)(F)F)N=N2)cc1 (stereo not shown) [26e],–,8,8,–,–,–,antibacterial potency of alkynyl esters compared to their ethyl variants [6]: 2-fold decreased potency
CCOC(=O)C1=C(c2ccccc2)NC(N)=NC1c1ccccc1 (stereo not shown) [compound 6],>64,> 64,> 64,18 µM and 5.8 µg/mL,> 64,> 64,"MIC ATCC 43300 [2, 9]: >64 mg/L"
CCOC(=O)c1c(-c2ccccc2)nc(N)nc1-c1ccc(CC(C)C)cc1 [8a],–,–,–,–,–,> 64,antibacterial activity (in words) [6]: lacked antibacterial activity; DHFR inhibition (in words) [8]: no inhibition was observed; also recorded: lacked antibacterial activity and DHFR inhibition
CCOC(=O)C1=C(c2cccc(F)c2)NC(N)=NC1c1ccc(CC(C)C)cc1 (stereo not shown) [7h],>64,4,4,4.4 µM and 1.4 µg/mL,4,–,–
CCOC(=O)C1=C(c2ccccc2)NC(N)=NC1c1ccc(C(C)C)cc1 (stereo not shown) [6r],>64,8,–,9.5 µM and 3.1 µg/mL,–,8,–
CCOC(=O)C1=C(c2ccccc2)NC(N)=NC1c1ccc(OC)cc1 (stereo not shown) [6u],>64,> 64,–,14 µM and 4.5 µg/mL,> 64,> 64,–
C#CCCOC(=O)C1=C(c2ccccc2)NC(N)=NC1c1cc(Cl)cc(Cl)c1 (stereo not shown) [26d],–,16,16,–,–,–,antibacterial potency of alkynyl esters compared to their ethyl variants [6]: 2-fold decreased potency
"CN[C@H](CC(C)C)C(=O)N[C@H]1C(=O)N[C@@H](CC(N)=O)C(=O)N[C@H]2C(=O)N[C@H]3C(=O)N[C@H](C(=O)N[C@H](C(=O)O)c4cc(O)cc(O)c4-c4cc3ccc4O)[C@H](O)c3ccc(c(Cl)c3)Oc3cc2cc(c3O[C@@H]2O[C@H](CO)[C@@H](O)[C@H](O)[C@H]2O[C@H]2C[C@](C)(N)[C@H](O)[C@H](C)O2)Oc2ccc(cc2Cl)[C@H]1O [vancomycin, reference compound]",–,–,–,–,–,–,"MIC [2]: 2 mg/L; MIC ([3]; ATCC12600, 18 h): 2 mg/L; MIC [6]: 2 mg/L; MIC [5]: 2 mg/L"
CCOC(=O)C1=C(c2ccccc2)NC(N)=NC1c1ccc(CC(C)C)cc1 (stereo not shown) [7a],>64,4,4,7.9 µM and 2.5 µg/mL,–,4,–
